Values joined by “and” are separate entries in the source; they are usually repeats but may differ in a detail not shown here. Identical values can stand only once.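 Briefly, cells in 96-well plates were exposed to five compound concentrations for 48 h, and endpoints were estimated by linear interpolation. The concentration for 50% growth inhibition is given as GI50. TGI denotes the concentration required for complete inhibition of growth.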 Where a SMILES comes first, the peptide text is derived from it. [ ]: non-standard residue; d: D form. The star is where a group is joined. NMeF = CN[CH](Cc1ccccc1)C(=O)O; NMeV = CN[CH](C(=O)O)C(C)C; Boc = CC(C)(C)OC(=O)*
How the values were obtained:
Test in all cases: NCI-60 cell line screen, 48 h
SNB-78 CNS = test system: SNB-78 CNS
DMS 114 small cell lung = test system: DMS 114 small cell lung
KM20L2 colon = test system: KM20L2 colon
M19-MEL melanoma = test system: M19-MEL melanoma
RXF-631 renal = test system: RXF-631 renal
DLD-1 colon = test system: DLD-1 colon
DMS 273 small cell lung = test system: DMS 273 small cell lung
XF 498 CNS = test system: XF 498 CNS
MDA-N = test system: MDA-N

SMILES | TGI (SNB-78 CNS) | TGI (DMS 114 small cell lung) | TGI (KM20L2 colon) | TGI (M19-MEL melanoma) | TGI (DLD-1 colon) | TGI (DMS 273 small cell lung) | TGI (XF 498 CNS) | TGI (MDA-N) | further results
Cc1nc(N)sc1C(=O)/C=C\c1ccc2c(c1)OCO2 | > 100 µM | > 100 µM | > 100 µM | > 100 µM | > 100 µM | > 100 µM | > 100 µM | – | TGI (RXF-631 renal): > 100 µM
CCOc1ccccc1NC(=O)CC(C(=O)OC)C(=O)C(=O)OC (stereo unspecified) | > 100 µM | > 100 µM | > 100 µM | > 100 µM | – | > 100 µM | – | – | TGI (RXF-631 renal): > 100 µM
NCC1Nc2ccccc2[C@@H](O)C1O (stereo partly specified) | – | – | – | – | – | – | – | > 100 µM | –
CC(C)C(NC(=O)OC(C)(C)C)C(=O)N(C)C(Cc1ccccc1)C(=O)N(C)C(C(=O)O)C(C)C (stereo not drawn) (Boc-Val-[NMeF]-[NMeV]-OH; configuration not given here) | – | > 100 µM | > 100 µM | > 100 µM | – | > 100 µM | > 100 µM | – | –
COc1cc2c(cc1OC)C(CC(=O)NN=C(C)C)NCC2 (stereo unspecified) | > 100 µM | > 100 µM | > 100 µM | > 100 µM | > 100 µM | > 100 µM | > 100 µM | – | –
Cn1c(=O)c(C(c2ccc([N+](=O)[O-])cc2)c2c(O)c3ccccc3n(C)c2=O)cc2ccccc21 (stereo unspecified) | > 100 µM | > 100 µM | > 100 µM | > 100 µM | > 100 µM | > 100 µM | > 100 µM | – | TGI (RXF-631 renal): > 100 µM
Cc1cn(C2CC(O)C(CO)O2)c(=O)n2nnnc12 (stereo unspecified) | > 100 µM | > 100 µM | – | > 100 µM | > 100 µM | > 100 µM | – | – | TGI (RXF-631 renal): > 100 µM
OC[C@H]1CCCC1O (stereo partly specified) | – | – | – | – | – | – | – | > 100 µM | –
NC(N)=N/N=C(\c1nc2ccc([N+](=O)[O-])cc2[nH]c1=O)C(O)c1ccc([N+](=O)[O-])cc1 (stereo unspecified) | > 100 µM | 75 µM | > 100 µM | > 100 µM | > 100 µM | > 100 µM | > 100 µM | – | TGI (RXF-631 renal): > 100 µM
NP(=O)(Oc1c2occc2cc2ccc(=O)oc12)N(CCCl)CCCl (stereo unspecified) | – | – | – | – | – | – | – | > 100 µM | –
Oc1ccccc1C(Sc1nc2ccccc2s1)Sc1nc2ccccc2s1 | – | – | – | – | – | – | – | > 100 µM | –
COC1(OC)C2(Cl)C(Cl)=C(Cl)C1(Cl)C1C=CC=CC12 (stereo unspecified) | > 100 µM | > 100 µM | > 100 µM | > 100 µM | > 100 µM | > 100 µM | > 100 µM | – | TGI (RXF-631 renal): 39.9 µM
COc1ccccc1CCc1cc(OC)c(OC)c(OC)c1 | > 100 µM | > 100 µM | > 100 µM | > 100 µM | > 100 µM | > 100 µM | 84.8 µM | – | –
COc1cc2c(c(OC)c1OC)-c1ccc(OC)c(=O)cc1[C@@H](NC(=O)c1ccccc1)CC2 | 38.7 µM | < 0.016 µM | – | > 100 µM | > 100 µM | – | 3.86 µM | < 0.003 µM | GI50 (MDA-N): < 3 nM; TGI (RXF-631 renal): > 48.3 µM
Cc1cc(Cl)ccc1N=C1NC(=O)C(CC(=O)Nc2ccc([N+](=O)[O-])cc2[N+](=O)[O-])S1 (stereo unspecified) | 73.6 µM | 49.9 µM | > 100 µM | 75.4 µM | > 100 µM | 82.7 µM | 53.6 µM | – | –
COc1ccc(C(=O)C(C(=O)CCC(=O)Nc2cccc(Cl)c2)c2ccc(OC)cc2)cc1 (stereo unspecified) | – | – | > 100 µM | > 100 µM | > 100 µM | > 100 µM | > 100 µM | – | TGI (RXF-631 renal): > 100 µM
Cc1cccc(NC(=O)/C(=N\NC(C)(C)C)C2NC(=S)NC2=O)c1C (stereo unspecified) | > 100 µM | – | > 100 µM | > 100 µM | > 100 µM | – | – | – | TGI (RXF-631 renal): > 100 µM
N#CC(NNC(=O)Cc1ccccc1)c1c(O)ccc2ccccc12 (stereo unspecified) | 72 µM | 5.38 µM | 42 µM | 16.3 µM | > 100 µM | 19.1 µM | – | > 100 µM | –
NS(=O)(=O)c1ccc(NC2(C(=O)O)CCCC2)cc1 | – | – | – | – | – | – | – | > 100 µM | –
COC(=O)C1=C(C)N(NC(=O)OC(C)(C)C)C(=O)C1=P(c1ccccc1)(c1ccccc1)c1ccccc1 | > 100 µM | > 100 µM | > 100 µM | > 100 µM | > 100 µM | > 100 µM | > 100 µM | – | –
CC(C)(C)c1ccc2c(c1)S(=O)(=O)Nc1ccccc1NS(=O)(=O)c1cc(C(C)(C)C)ccc1OCCOCCOCCO2 | > 100 µM | > 100 µM | – | > 100 µM | > 100 µM | > 100 µM | – | – | TGI (RXF-631 renal): > 100 µM
Cn1c2c(c3ccccc31)CC1c3c(c4ccccc4n3C)CC21 (stereo unspecified) | – | – | – | – | – | – | – | > 100 µM | –
CN1c2ccc(Cl)cc2C(=O)NC1c1ccc([N+](=O)[O-])s1 (stereo unspecified) | – | – | – | – | – | – | – | 31.7 µM | –
COC1=C(C)C(=O)c2c(c(COC(N)=O)c3n2CC2C3N2C)C1=O (stereo unspecified) | – | – | – | – | – | – | – | 0.136 µM | –
CC(C)(C)c1cc(Br)c(O)c(CN(Cc2cc(C(C)(C)C)cc(Br)c2O)C2CCCCC2)c1 | – | – | – | – | – | – | – | 27.6 µM | –

SMILES | TGI (SNB-78 CNS) | TGI (DMS 114 small cell lung) | TGI (KM20L2 colon) | TGI (M19-MEL melanoma) | TGI (DLD-1 colon) | TGI (DMS 273 small cell lung) | TGI (XF 498 CNS) | TGI (MDA-N) | further results
COc1ccc(/C=C/c2ccnc3ccccc23)c(OC)c1 | – | – | – | – | – | – | – | > 10 µM | –
CC1(C)SCc2nc3ncccc3n21 | > 100 µM | > 100 µM | > 100 µM | > 100 µM | > 100 µM | – | > 100 µM | – | TGI (RXF-631 renal): > 100 µM
COC(=O)/C(=N\Nc1nnc(C)n1N)C(C#N)c1ccc(Cl)cc1 (stereo unspecified) | > 100 µM | > 100 µM | > 100 µM | > 100 µM | > 100 µM | > 100 µM | > 100 µM | – | –
CC1CC[C@]2(C(=O)O)CCC3(C)C(=CC(=O)C4[C@@]5(C)CCC(=O)C(C)(C)C5CC[C@]43C)[C@@H]2[C@H]1C (stereo partly specified) | > 100 µM | 63.1 µM | – | 71.3 µM | – | – | 29.5 µM | – | TGI (RXF-631 renal): > 100 µM
O=C(Cc1ccccc1)NN1C(=O)C(Cl)C1c1cc(Br)ccc1O (stereo unspecified) | 91.8 µM | 8.77 µM | > 100 µM | 23.3 µM | > 100 µM | > 100 µM | > 100 µM | – | –
Cc1cn(C2CC(N(O)Cc3ccccc3)C(CO[Si](C)(C)C(C)(C)C)O2)c(=O)[nH]c1=O (stereo unspecified) | – | – | – | – | – | – | – | 35.1 µM and 31.7 µM | –
CCOC(=O)C1=C(C)N(NC(=O)Nc2ccccc2)C(=O)C1=P(c1ccccc1)(c1ccccc1)c1ccccc1 | – | > 100 µM | > 100 µM | > 100 µM | > 100 µM | > 100 µM | 95.3 µM | – | –
COc1cc(C(C)O)c[n+](CCc2c[nH]c3ccccc23)c1 (stereo unspecified) | – | > 100 µM | > 100 µM | > 100 µM | > 100 µM | > 100 µM | > 100 µM | – | TGI (RXF-631 renal): > 100 µM
CC(=O)[O-].CCN(CC)c1ccc(C=NCCN=Cc2ccc(N(CC)CC)cc2[O-])c([O-])c1.[Mn+3] | > 100 µM | 35.8 µM | 33.2 µM | 32.4 µM | > 100 µM | 45.8 µM | – | – | GI50 (SNB-78 CNS): 45.1 µM; GI50 (DMS 114 small cell lung): 19.6 µM; GI50 (KM20L2 colon): 17.8 µM; GI50 (M19-MEL melanoma): 17.7 µM; GI50 (DLD-1 colon): 55.2 µM; GI50 (DMS 273 small cell lung): 22.4 µM
C1=CC2SSSC2C1 (stereo unspecified) | – | > 100 µM | > 100 µM | > 100 µM | > 100 µM | > 100 µM | > 100 µM | – | –
C[C@@H]1CC(=O)C2CCCC1C2=O (stereo partly specified) | > 100 µM | > 100 µM | > 100 µM | > 100 µM | > 100 µM | > 100 µM | – | – | TGI (RXF-631 renal): > 100 µM
C=C1C(=O)O[C@@H]2/C=C(\C)CC/C=C(/COC(C)=O)C[C@@H](OC(C)=O)[C@@H]12 | – | – | – | – | – | – | – | 20.5 µM | –
NCCCCN(CCCN)/[N+]([O-])=N\O | > 100 µM | > 100 µM | > 100 µM | > 100 µM | > 100 µM | > 100 µM | – | – | –
CC(C)C(Nc1c2ccccc2nc2ccccc12)C(=O)O (stereo unspecified) | – | – | > 100 µM | > 100 µM | > 100 µM | > 100 µM | > 100 µM | – | –
CN1C(=O)c2cccc3cc([N+](=O)[O-])cc(c23)C1=O | – | – | – | – | – | – | – | > 10 µM | –
Nn1c(=O)n(Cc2ccccc2)n(-c2ccccc2)c1=O | > 100 µM | – | – | – | > 100 µM | > 100 µM | > 100 µM | – | –
O=C1CCN2C(=O)CCN12 | > 100 µM | > 100 µM | – | > 100 µM | – | – | > 100 µM | – | –
Oc1cccnc1CN1CCCCC1 | – | – | – | – | – | – | – | > 100 µM | –
COC(C(O)CO)C(O)C(O)C(=O)NNc1ccccc1 (stereo unspecified) | – | – | – | – | – | – | – | > 100 µM | –
COc1cc(C=C2C(=O)NC(=O)NC2=O)cc(OC)c1OC | > 100 µM | > 100 µM | > 100 µM | > 100 µM | > 100 µM | > 100 µM | > 100 µM | – | –
O=C(O)C1OC(n2cc(F)c(=O)[nH]c2=O)CC1O (stereo unspecified) | > 100 µM | > 100 µM | > 100 µM | > 100 µM | > 100 µM | > 100 µM | > 100 µM | > 100 µM | –
CC1(C)C(=O)N(CCCCCCN2C(=O)C(C)(C)c3ccccc32)c2ccccc21 | > 100 µM | 43.4 µM | > 100 µM | 65.2 µM | – | > 100 µM | 53.6 µM | – | –
CCOC(=O)CC1(C(=O)OCC)c2[nH]c3ccccc3c2CCN1Cc1ccccc1 (stereo unspecified) | 81.2 µM | 38.6 µM | 32.5 µM | 27.6 µM | 89.4 µM | 32 µM | 41.4 µM | – | –
N#C/C(=C1C=C(Br)/C(=N\O)C=C\1Cl)c1cccc2ccccc12 | – | – | – | – | – | – | – | 3.28 µM | –

Reference: PubChem BioAssay (NCI)
